Experimental data: BindingDB's records for PubMed 11356907 (Institut De Recherches Servier, 2001)
pKi: −log10 of the molar value.

Tests used:
[1] = molecular target: Beta-2 adrenergic receptor (Homo sapiens, UniProt P07550)
[2] = molecular target: Sodium-dependent noradrenaline transporter (Homo sapiens, UniProt P23975)
[3] = molecular target: T1, Amine oxidase [flavin-containing] A (Rattus norvegicus, UniProt P21396)
T1 sequence (P21396 whole entry): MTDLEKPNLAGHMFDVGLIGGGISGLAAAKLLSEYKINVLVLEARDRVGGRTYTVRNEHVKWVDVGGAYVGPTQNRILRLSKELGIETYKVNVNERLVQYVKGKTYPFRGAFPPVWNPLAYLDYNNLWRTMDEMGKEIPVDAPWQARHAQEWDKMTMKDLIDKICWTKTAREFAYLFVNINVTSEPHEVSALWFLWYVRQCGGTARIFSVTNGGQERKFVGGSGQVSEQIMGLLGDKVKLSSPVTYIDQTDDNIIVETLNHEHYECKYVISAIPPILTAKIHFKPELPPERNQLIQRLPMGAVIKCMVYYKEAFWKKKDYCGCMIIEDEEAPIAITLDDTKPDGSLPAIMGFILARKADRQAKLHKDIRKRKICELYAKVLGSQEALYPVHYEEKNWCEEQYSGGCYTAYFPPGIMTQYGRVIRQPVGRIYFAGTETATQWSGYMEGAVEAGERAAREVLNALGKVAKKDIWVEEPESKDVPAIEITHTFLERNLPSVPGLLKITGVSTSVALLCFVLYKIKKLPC

[4] = molecular target: T2, Alpha-2C adrenergic receptor (Homo sapiens, UniProt P18825)
T2 sequence (P18825 whole entry): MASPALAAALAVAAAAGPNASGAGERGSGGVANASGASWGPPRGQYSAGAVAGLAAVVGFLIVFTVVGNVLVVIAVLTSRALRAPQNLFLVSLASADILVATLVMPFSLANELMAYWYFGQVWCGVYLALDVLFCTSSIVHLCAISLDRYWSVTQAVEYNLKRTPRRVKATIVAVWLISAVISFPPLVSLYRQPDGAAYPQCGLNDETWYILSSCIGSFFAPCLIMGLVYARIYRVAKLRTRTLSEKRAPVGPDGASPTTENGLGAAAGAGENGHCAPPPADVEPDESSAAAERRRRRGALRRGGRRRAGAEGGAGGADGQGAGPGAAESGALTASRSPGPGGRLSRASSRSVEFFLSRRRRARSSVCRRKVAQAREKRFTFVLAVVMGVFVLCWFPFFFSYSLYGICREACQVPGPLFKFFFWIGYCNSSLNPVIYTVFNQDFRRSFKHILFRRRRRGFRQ

[5] = molecular target: Norepinephrine transporter (Rattus norvegicus, UniProt Q9JIA2)
[6] = molecular target: T3, Alpha-2C adrenergic receptor (Rattus norvegicus, UniProt P22086)
T3 sequence (P22086 whole entry): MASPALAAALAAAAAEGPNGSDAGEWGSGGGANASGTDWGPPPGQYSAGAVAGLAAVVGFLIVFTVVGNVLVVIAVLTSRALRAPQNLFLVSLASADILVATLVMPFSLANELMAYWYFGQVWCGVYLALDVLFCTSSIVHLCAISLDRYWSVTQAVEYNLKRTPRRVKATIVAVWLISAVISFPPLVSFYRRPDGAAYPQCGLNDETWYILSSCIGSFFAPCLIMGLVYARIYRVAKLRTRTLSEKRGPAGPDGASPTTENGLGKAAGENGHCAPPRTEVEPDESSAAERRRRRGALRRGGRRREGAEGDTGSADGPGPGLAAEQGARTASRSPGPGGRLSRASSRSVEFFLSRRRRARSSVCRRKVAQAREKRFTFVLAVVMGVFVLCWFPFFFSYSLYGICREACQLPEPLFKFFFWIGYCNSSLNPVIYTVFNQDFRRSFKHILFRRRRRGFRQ

[7] = molecular target: T4, Alpha-1B adrenergic receptor (Homo sapiens, UniProt P35368)
T4 sequence (P35368 whole entry): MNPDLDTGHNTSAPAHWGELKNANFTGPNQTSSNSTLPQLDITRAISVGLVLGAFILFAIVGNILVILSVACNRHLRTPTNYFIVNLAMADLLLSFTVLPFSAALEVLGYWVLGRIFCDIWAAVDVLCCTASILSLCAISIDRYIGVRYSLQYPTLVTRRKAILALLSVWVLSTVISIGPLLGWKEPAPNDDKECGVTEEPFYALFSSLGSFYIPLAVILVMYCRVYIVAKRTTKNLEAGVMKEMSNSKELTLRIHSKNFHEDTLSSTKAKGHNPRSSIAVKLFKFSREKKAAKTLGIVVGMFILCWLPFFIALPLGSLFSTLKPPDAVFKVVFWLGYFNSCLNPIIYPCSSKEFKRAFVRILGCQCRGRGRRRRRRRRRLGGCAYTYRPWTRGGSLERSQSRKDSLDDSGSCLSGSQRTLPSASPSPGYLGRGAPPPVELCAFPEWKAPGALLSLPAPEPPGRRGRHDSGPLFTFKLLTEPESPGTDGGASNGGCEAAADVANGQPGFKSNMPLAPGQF

[8] = molecular target: D(2) dopamine receptor (Rattus norvegicus, UniProt P61169)
D(2) dopamine receptor (Rattus norvegicus, UniProt P61169), sequence (P61169 whole entry): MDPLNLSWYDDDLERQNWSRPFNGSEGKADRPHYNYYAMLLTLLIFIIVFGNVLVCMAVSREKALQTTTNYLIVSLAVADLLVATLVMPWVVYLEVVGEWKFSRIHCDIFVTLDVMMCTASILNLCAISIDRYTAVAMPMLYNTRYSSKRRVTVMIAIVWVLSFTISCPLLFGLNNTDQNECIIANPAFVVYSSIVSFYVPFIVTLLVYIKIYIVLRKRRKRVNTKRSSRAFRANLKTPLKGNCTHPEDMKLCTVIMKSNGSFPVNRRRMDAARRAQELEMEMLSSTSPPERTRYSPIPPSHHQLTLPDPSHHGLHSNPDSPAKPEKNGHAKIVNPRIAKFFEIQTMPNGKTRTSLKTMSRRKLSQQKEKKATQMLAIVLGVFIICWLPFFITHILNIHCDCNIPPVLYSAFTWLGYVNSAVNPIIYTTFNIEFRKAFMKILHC

[9] = molecular target: T5, Alpha-1D adrenergic receptor (Homo sapiens, UniProt P25100)
T5 sequence (P25100 whole entry): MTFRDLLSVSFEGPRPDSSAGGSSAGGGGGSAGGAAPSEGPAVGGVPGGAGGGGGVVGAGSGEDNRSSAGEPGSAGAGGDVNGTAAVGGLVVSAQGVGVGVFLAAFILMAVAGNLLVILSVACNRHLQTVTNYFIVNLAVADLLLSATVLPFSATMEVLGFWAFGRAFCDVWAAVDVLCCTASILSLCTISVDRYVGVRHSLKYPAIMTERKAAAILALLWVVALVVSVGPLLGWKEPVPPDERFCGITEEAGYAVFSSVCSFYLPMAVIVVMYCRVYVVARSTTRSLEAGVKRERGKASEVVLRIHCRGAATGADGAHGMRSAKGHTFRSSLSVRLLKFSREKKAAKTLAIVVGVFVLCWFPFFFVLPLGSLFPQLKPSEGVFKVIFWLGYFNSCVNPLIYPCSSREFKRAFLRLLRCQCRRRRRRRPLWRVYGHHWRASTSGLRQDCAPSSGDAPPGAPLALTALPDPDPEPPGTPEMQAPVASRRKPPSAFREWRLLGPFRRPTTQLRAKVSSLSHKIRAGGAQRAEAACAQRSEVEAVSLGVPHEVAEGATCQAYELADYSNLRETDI

[10] = molecular target: D(2) dopamine receptor (Homo sapiens, UniProt P14416)
D(2) dopamine receptor (Homo sapiens, UniProt P14416), sequence (P14416 whole entry): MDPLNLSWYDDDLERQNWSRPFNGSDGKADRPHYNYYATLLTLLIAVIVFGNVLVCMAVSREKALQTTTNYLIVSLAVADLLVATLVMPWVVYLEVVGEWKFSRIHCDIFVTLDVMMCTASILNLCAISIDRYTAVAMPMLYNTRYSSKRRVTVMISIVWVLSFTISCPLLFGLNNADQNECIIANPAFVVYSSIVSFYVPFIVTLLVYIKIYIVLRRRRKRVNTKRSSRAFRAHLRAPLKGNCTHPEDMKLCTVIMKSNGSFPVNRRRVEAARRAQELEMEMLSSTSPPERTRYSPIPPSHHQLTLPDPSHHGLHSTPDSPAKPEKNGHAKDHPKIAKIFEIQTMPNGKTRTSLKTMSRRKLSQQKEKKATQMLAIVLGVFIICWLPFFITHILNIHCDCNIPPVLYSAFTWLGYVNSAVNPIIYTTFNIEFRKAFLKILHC

[11] = molecular target: T6, Alpha-1A adrenergic receptor (Homo sapiens, UniProt P35348)
T6 sequence (P35348 whole entry): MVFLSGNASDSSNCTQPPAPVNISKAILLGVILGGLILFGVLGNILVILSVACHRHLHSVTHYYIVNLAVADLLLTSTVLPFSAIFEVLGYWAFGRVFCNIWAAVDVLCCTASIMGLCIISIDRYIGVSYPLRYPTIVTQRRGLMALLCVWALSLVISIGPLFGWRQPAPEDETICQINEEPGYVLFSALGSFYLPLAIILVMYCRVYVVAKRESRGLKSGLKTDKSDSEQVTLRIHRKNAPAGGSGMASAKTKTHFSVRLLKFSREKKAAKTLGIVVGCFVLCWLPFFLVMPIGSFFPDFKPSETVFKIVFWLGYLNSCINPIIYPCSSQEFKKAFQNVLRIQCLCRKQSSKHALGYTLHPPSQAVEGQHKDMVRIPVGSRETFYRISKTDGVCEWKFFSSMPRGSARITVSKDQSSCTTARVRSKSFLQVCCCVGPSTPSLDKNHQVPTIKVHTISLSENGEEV

[12] = molecular target: T7, Alpha-2A adrenergic receptor (Homo sapiens, UniProt P08913)
T7 sequence (P08913 whole entry): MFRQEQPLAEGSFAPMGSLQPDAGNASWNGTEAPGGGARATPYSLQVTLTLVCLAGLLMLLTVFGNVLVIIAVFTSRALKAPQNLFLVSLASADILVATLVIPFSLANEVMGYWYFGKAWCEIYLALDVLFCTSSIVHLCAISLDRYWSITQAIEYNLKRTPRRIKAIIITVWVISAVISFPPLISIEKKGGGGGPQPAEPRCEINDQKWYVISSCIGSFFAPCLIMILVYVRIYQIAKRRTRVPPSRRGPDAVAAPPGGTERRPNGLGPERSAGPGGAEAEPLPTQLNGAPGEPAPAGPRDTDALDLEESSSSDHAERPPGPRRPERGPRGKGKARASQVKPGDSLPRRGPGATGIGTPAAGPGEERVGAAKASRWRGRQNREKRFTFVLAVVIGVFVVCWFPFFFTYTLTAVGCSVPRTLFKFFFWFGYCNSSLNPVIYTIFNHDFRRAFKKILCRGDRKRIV

[13] = molecular target: T8, Amine oxidase [flavin-containing] B (Rattus norvegicus, UniProt P19643)
T8 sequence (P19643 whole entry): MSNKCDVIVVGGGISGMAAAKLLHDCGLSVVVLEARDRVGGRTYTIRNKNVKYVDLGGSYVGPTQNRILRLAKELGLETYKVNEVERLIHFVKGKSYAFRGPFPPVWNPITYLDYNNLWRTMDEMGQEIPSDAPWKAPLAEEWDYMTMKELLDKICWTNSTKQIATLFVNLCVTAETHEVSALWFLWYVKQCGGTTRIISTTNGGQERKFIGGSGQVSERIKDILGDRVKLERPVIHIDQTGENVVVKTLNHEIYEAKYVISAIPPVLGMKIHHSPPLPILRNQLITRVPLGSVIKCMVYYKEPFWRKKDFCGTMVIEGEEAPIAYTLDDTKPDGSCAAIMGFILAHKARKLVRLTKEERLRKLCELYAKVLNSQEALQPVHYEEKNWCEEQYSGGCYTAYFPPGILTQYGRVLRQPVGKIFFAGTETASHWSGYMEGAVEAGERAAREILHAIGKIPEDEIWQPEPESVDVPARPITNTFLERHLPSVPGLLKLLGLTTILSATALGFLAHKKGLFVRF

Sodium-dependent noradrenaline transporter, sequence (P23975 whole entry): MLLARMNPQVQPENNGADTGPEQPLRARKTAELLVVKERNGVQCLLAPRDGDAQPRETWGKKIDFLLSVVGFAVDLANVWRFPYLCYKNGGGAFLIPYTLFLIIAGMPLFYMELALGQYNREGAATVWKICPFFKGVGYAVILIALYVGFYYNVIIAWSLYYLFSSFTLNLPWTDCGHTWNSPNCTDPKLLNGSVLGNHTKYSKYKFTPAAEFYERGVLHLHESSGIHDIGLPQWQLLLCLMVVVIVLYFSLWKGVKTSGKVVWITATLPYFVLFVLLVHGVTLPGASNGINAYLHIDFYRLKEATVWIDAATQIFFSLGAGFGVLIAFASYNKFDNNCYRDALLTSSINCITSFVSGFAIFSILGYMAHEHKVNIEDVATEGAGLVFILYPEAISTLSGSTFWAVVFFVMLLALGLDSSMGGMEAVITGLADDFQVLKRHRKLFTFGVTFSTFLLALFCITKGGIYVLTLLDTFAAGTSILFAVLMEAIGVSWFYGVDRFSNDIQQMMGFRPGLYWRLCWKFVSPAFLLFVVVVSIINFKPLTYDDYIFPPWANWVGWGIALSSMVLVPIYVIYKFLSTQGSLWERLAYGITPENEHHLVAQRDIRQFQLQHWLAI
Beta-2 adrenergic receptor, sequence (P07550 whole entry): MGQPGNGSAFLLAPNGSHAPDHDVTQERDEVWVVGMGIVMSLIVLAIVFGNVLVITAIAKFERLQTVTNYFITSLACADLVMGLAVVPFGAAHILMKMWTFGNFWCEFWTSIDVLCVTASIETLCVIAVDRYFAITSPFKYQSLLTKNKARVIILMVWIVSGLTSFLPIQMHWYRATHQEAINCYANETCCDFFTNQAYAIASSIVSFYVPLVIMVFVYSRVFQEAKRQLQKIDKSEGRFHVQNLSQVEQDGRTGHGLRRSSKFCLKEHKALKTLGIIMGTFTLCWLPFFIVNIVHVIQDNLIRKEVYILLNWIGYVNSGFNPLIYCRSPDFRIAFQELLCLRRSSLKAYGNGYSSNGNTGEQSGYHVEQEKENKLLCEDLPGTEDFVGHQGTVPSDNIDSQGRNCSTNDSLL

pKi [1]: < 5.00
pKi [2]: < 5.00
pKi [3]: < 5.00
pKi [4]: 7.16
pKi [5]: < 5.00
pKi [6]: 6.36
pKi [7]: 5.21
pKi [8]: 6.74
pKi [9]: 6.66
pKi [10]: 6.88
pKi [11]: 6.09
pKi [12]: 7.05
pKi [13]: < 5.00
SMILES: c1cnc(N2CCN(Cc3ccc4c(c3)OCO4)CC2)nc1 [NSC_4850]
